Several values for one entry are separate records, joined by “and”; a condition that tells them apart may be missing. Identical values can stand only once. Entries after “also recorded” stand apart in the source; their conditions may differ. Like-named read-outs stand apart in the source and are kept apart here. Ends that are not written are not given here. Peptide text beside a SMILES is read from it.

A word on the IC50: it is the point on the concentration scale where inhibition reaches its midpoint.

For one data set, the target named is T1, rat recombinant IDE (Rattus norvegicus, UniProt P35559).
T1 construct: purchased Calbiochem (InnoZyme Insulysin/IDE Immunocapture Activity Assay Kit) CBA079
T1 sequence (P35559 whole entry): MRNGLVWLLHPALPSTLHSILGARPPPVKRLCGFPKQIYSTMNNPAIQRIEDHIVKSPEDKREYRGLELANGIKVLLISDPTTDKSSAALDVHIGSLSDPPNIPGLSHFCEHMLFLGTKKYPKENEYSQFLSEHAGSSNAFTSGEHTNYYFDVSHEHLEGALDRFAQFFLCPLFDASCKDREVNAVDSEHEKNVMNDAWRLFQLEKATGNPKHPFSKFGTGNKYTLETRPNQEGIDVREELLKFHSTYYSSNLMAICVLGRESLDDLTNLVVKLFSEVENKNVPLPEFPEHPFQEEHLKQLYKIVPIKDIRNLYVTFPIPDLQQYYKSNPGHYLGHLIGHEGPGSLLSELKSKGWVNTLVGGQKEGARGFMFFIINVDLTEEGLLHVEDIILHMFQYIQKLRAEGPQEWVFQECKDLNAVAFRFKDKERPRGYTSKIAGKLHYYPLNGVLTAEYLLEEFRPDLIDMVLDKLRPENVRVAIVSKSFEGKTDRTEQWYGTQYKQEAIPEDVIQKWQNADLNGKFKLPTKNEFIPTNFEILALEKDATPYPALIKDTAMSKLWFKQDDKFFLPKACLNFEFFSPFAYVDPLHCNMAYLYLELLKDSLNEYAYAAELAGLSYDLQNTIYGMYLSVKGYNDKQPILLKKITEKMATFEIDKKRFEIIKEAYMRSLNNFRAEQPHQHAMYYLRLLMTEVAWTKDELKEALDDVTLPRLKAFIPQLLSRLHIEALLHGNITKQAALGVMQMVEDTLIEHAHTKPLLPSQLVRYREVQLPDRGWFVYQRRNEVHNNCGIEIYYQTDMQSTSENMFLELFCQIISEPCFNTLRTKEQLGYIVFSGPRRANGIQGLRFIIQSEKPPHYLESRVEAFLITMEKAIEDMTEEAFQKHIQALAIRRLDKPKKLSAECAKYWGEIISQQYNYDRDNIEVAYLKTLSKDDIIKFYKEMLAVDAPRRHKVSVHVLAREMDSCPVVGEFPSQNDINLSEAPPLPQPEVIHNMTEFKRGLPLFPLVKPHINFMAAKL
Nature of the data set: Fluorometric IDE activity assay (InnoZyme Insulysin/IDE Immunocapture Activity Assay Kit, FRET substrate). Format: biochemical. The conditions noted are these: 16 hours at 37° C.; for IC50: 3 repeated experiments. As to the method: For example, one method that may be used (as described in detail in Example 2, of the Examples section which follows) comprises the use of Insulysin/IDE Immunocapture Activity Assay Kit (available e.g. from InnoZyme™, Calbiochem). Using this kit ELISA plates are first coated with the target enzyme (i.e. IDE) and then the plates are incubated with the synthesized peptide. The enzymatic activity is measured in comparison to wells without the peptide using for example a FRET substrate, Mca-[…]-EDDnp (SEQ ID NO: 11). Cleavage of the scissile amide bond between R and K releases the fluorophore from the quenching molecule, Dnp, resulting in an increase in fluorescence. The increase in fluorescence is measured using an excitation wavelength of 320 nm and an emission wavelength of 405 nm.
In order to measure IDE activity, coating of ELISA plates with the target enzyme (i.e. IDE) was carried out. Next, plates were incubated with the selected synthesized peptide candidate and the enzymatic activity was measured as compared to wells without the peptide candidate. This was carried out using InnoZyme™ Insulysin/IDE Immunocapture Activity Assay Kit from Calbiochem (worldwidewebdotmerckbiosciencesdotcom/Products/pdsdotaspquestionmarkcatnoequal CBA079), a specific and sensitive assay for measuring active IDE in cell lysates, tissue extracts and biological fluids.
Peptide ability to inhibit IDE activity was measured using InnoZyme™ Insulysin/IDE Immunocapture activity assay kit (Calbiochem), an affinity purified polyclonal antibody that recognized human, mouse, and rat insulysin, immobilized on a 96-well plate to capture the enzyme. In brief, rat recombinant IDE (1.14 nM) was incubated with increasing amounts of the candidate inhibitors with doses ranging from 1-100 μM for 16 hours at 37° C. and the activity of captured IDE was measured using a FRET substrate, Mca-[…]-EDDnp (SEQ ID NO: 11). Cleavage of the scissile amide bond between R and K released the fluorophore from the quenching molecule, Dnp, resulting in an increase in fluorescence. The increase in fluorescence was measured using an excitation wavelength of 320 nm and an emission wavelength of 405 nm. As a control, the kit used rat recombinant IDE. IC50 were evaluated following three repeated experiments.
Specifically, rat recombinant IDE (1.14 nM) was incubated with different doses of ADT-21 ([…]) for 16 hours at 37° C. and the activity of the captured insulysin (IDE) was measured using a FRET substrate, Mca-[…]-EDDnp (SEQ ID NO: 11) using Florolog with the following parameters Ex=320 nm, Gm=405 nm, Slit=2, Maximum trails=10, Integration time=1, Target standard deviation=1%.

Data set [1] deals with IDE (Rattus norvegicus, UniProt P35559). In words: In vitro insulin degradation assay (bovine insulin + IDE, insulin ELISA). The conditions noted are these: ADT21 0.2 nM; insulin 0.87 nM, IDE 1.14 nM, 16 hours at 37° C. It counts as biochemical. As to the method: Insulin (0.87 nM) isolated from bovine pancreas (SIGMA) was incubated for 16 hours at 37° C. in the presence or absence of IDE (1.14 nM) together with the inhibitors (0.002-0.2 nM). The levels of insulin degradation were analyzed using mouse insulin ELISA kit (Mercodia).
Chain of IDE (Rattus norvegicus, UniProt P35559) (P35559 whole entry): as above
In order to verify that ADT21 reduces degradation of insulin by IDE, inventors incubated bovine insulin for 16 hours at 37° C. with or without IDE (1.14 nM) along with ADT21. The levels of insulin degradation were analyzed using a mouse insulin ELISA kit (as described in the “materials and experimental procedures” section above). […] Therefore, inventors speculated that the use of this inhibitor in vivo would delay insulin degradation without preventing IDE activity.
Background: In an ELISA, binding on a coated surface is turned into a signal by an enzyme label.

In data set [2] the test system is NOD mice. Nature of the data set: NOD mouse model of insulin dependent diabetes mellitus, nasal administration, blood glucose / diabetes onset. It counts as in vivo. The source says:
(§1) A NOD mouse model has been used as previously described as a model for insulin dependent diabetes mellitus (IDDM) [Atkinson et al., (1990) Diabetes 39, 933-937]. Diabetes in NOD (NOD/ShiLtJ) mice is characterized by insulitis and marked decreases in pancreatic insulin content that occurred in females at about 15 weeks of age. The animals were monitored carefully when receiving the different treatments. Onset of diabetes was marked by moderate glycosuria and by non-fasting plasma glucose higher than 250 mg/dl.
(§2) 12 week old NOD mice were divided into two groups of 10-12 mice each, receiving, every other day, nasal administration of 10 μl of the respective peptide (3.76 μg/kg) or control PBS.
Mice were monitored for blood glucose levels weekly using glucose test strip (Elite, BAYER).

The subject of data set [3] is NOD mice. Nature of the data set: Blood insulin levels in NOD mice at 30 weeks (HTRF Insulin assay). It counts as in vivo, mouse. The note with it: serum.
Description: as §1, §2
Mice were monitored for insulin blood levels at 30 week using HTRF® Insulin assay (Cisbio bioassays).
(Time-resolved FRET reads energy transfer from a long-lived donor to a nearby acceptor.)

Data set [4] concerns NOD mice. In words: Degree of insulitis, histological analysis of the pancreas of NOD mice. It counts as in vivo, mouse. The conditions noted are these: NOD mice at 30 weeks, vs PBS-treated group. The source says: Randomly selected animals from each group (at 30 weeks) were sacrificed and the pancreas of each was examined in a double-blind fashion for insulitis using histological analysis of the pancreas as previously described [Frenkel et al. (2003) J Immunol 171, 6549-6555]. Six to ten islets per mouse were individually scored by two independent observers using a semi-quantitative scale ranging from 0-4 as follows: 0, normal islet with no sign of T cell infiltration; 1, islet associated with perivascular, periductal leukocytic infiltration only; 2, more extensive peri-islet infiltration, but with lymphocytes with less than 25% islet destruction; 3 more than 25% islet destruction; and 4, complete islet destruction.

Data set [5] concerns NOD mice. In words: IGF-1 blood level in NOD mice at 30 weeks (AssayMax mouse IGF1 kit). Format: in vivo. An excerpt:
NOD mice were monitored for the blood level of Insulin growth factor 1 (IGF-1) at 30 weeks using AssayMax mouse IGF1 kit.

The test system of data set [6] is splenocytes obtained from NOD mice. In words: IFN-γ and IL-17 secretion from splenocytes of ADT21-treated NOD mice (ELISA). Format: in vivo, mouse. The note with it: splenocytes of treated NOD mice (30 weeks), incubated with insulin 48 hours. The method, then:
Splenocytes were obtained from NOD mice at the age of 30 weeks. Splenocytes were obtained from both control and ADT21-treated mice. Splenocytes were cultured in T cell medium buffer and plated at 1×10^6 cells per well with and without bovine insulin (Sigma) for 48 hours as previously described [Frenkel et al. (2003) J Immunol 171, 6549-6555].
(§3) Secretions of IFN-γ and IL-17 were measured in 48 hour cultured supernatants by ELISA. Briefly, 96 well plates were coated overnight with 1.5 μg/ml capture antibody (R&D Systems). Supernatants (as described above) were incubated overnight and detection biotinylated antibody (1 μg/ml, R&D Systems) was added for 1 hour. Plates were covered for 30 minutes with avidin-HRP conjugate and […] was used as a substrate for color development. 1M H2SO4 was used as a stop solution. Plates were measured using an ELISA plate reader at 405 nm.

For a further data set, the system named is CD4+ T-cells. Nature of the data set: Co-culture of CD4+ T-cells of insulin-immunized NOD mice with spleen cells, IFN-γ and IL-17 ELISA. It counts as cell-based, mouse. The conditions noted are these: co-culture with 10 μg/ml insulin, with or without 100 nM ADT21, 48 h. The method, then: as §3
NOD mice were immunized subcutaneously (s.c.) with bovine insulin (SIGMA) (n=6-7). 10 days later, CD4+ T-cells were isolated from the spleens of these mice using magnetic beads for negative selection (Miltenyi Biotec). The CD4+ T cells were co-cultured at a concentration of 1×10^6 cells/well in 96-well plates at a ratio of 1:1 with cells obtained from spleens of non immunized NOD mice (n=5). The co-culture was incubated with 10 μg/ml insulin with or without 100 nM ADT21. Supernatants were collect after 48 h of co-culture for cytokine measurements by ELISA for IL-17 and IFN-γ.

For data set [7], the target named is IDE (Homo sapiens, UniProt P14735). In words: Blocking of VZV gE interaction with IDE. The note with it: data not shown. Format: binding.
The mark [8] stands for this setting: IC50, rat recombinant IDE 1.14 nM, FRET substrate Mca-GGFLRKHGQ-EDDnp.

With `N[C@@H](CC(=O)O)C(=O)N[C@@H](CC(=O)O)C(=O)O` [ADT-31, DD] (H-Asp-Asp-OH), on rat recombinant IDE (rat recombinant IDE 1.14 nM, FRET substrate Mca-[…]-EDDnp, read-out: IC50), the IC50 is 736 nM. In the case of DAEFGSGGSSEALYDDLVCG [ADT82], the IC50 at rat recombinant IDE (setting [8]) came out at 438 nM. As to DAEFGSGGSSKLVFDDFAED [ADT25], the IC50 on rat recombinant IDE (setting [8]) was 604 nM. The same measure, in the same setting: then EALYDDLVCG [ADT2], with 230 nM; and EALYLVCG [INS, reference compound], with 465 nM. In the case of FVNQGSGGSSVLRYDDFHTD [ADT51], the IC50 on rat recombinant IDE (setting [8]) was 494 nM. Consider HSQGGSGGSSEALYDDLVCG [ADT72], for which the IC50 on rat recombinant IDE (setting [8]) came to 118 nM. Still for that read-out and setting: as for HSQGGSGGSSFVQWDDLMN [ADT24], the figure is 175 nM. For the molecule HSQGGSGGSSVLRYDDFHTD [ADT71], the IC50 at rat recombinant IDE (setting [8]) amounted to 1390 nM.

On to ITNPGSGGSSEALYDDLVCG [ADT41], for which the IC50 at rat recombinant IDE (setting [8]) is 331 nM. Same read-out and setting: then ITNPGSGGSSKLVFDDFAED [ADT44], with 545 nM; and ITNPGSGGSSLANFDDLVHSSNN [ADT42], with 199 nM. Take ITNPGSGGSSVLRYDDFHTD [ADT21]: the concentration for half-maximal inhibition (IC50) at rat recombinant IDE (setting [8]) was 100 nM and 10 to 200 nM. Besides, the “inhibition of IDE activity (in words)” value on rat recombinant IDE (rat recombinant IDE 1.14 nM) was “dose dependent and high efficacy in inhibition of IDE activity; also recorded: inhibits IDE activity in a dose dependant manner”. In addition, at IDE [1], the “reduction of insulin degradation by IDE” value amounted to 400%. For the same molecule, the “age at first conversion to diabetes” value in the data set with NOD mice [2] (NOD mice treated from 12 weeks, every other day, 3.76 μg/kg (94 ng/day), untreated: 15 weeks) came out at 20 weeks. In addition, in the data set with NOD mice [2] (NOD mice, every other day), the “behavioral changes that might indicate toxicity (body weight, eating habits, tail tone, mobility)” value was “no behavioral changes”. For the same molecule, the “animals remaining disease-free at 30 weeks” value with NOD mice [2] (NOD mice, every other day from 12 weeks, 71% of control mice diabetic) was determined as 75%. Besides, the “disease progression (in words)” value in the data set with NOD mice [2] (NOD mice, every other day, vs PBS, P<0.05) was “significantly delayed”. Moreover, the “blood insulin level relative to reference NOD mice” value in the data set with NOD mice [3] (printed: compared to sick NOD mice) is listed as 62%. Moreover, the “increase in blood insulin” value with NOD mice [3] (vs control group) is reported as “about 400%”. Further, the “infiltration of T cells in pancreatic islets (insulitis)” value in the data set with NOD mice [4] is “significantly less infiltration of T cells”. Besides, the “toxic effect related to IGF1 elevation” value with NOD mice [5] (IGF1 below the basal level (about 1000 ng/ml in wild type mice)) is “no toxic effect was observed”. Also, the IGF1 blood level in the data set with NOD mice [5] (NOD mice at 30 weeks, control NOD mice 33 ng/ml) was 440 ng/mL. Besides, in data set [6], the “reduction in the levels of IL-17” value was determined as 52%. Also, the “release of IFN-γ” value in the data set on CD4+ T-cells (p<0.01) is “dose dependant reduction”. Moreover, the “release of IL-17” value in the data set with CD4+ T-cells (p<0.05) is given as “dose dependant reduction”.

Take “ITNPVRASVLRYDDFHTD [VZV, reference compound]”: on rat recombinant IDE (setting [8]), the IC50 was found to be 450 nM. Turning to KCNTGSGGSSLANFDDLVHSSNN [ADT23], the IC50 at rat recombinant IDE (setting [8]) was 616 nM. As for KCNTGSGGSSVLRYDDFHTD [ADT61], the IC50 on rat recombinant IDE (setting [8]) was determined as 824 nM. KLVFDDFAED [ADT5, KLVFDDFAED]: the IC50 on rat recombinant IDE (setting [8]) stood at 552 nM. Take LANFDDLVHSSNN [ADT3]: on rat recombinant IDE (setting [8]), the IC50 worked out at 788 nM. On the same count and under the same terms, then VLRYDDFHTD [ADT1], with 145 nM. For VLRYNNFHTD [ADT5N], the “inhibition of IDE activity (in words)” value at rat recombinant IDE (rat recombinant IDE 1.14 nM) is “prevented the inhibition of IDE”. With “VZV gE (24-50): synthetic peptide corresponding to amino acids 24-50 of VZV gE (ITNPVRASVLRYDDFHTDEDKLDTNSV; A peptide sequence derived from VZV gE (24-50))”, the “blocking of VZV gE interaction with IDE” value with IDE [7] was “blocked VZV gE interaction with IDE in a concentration dependent manner”.

The values are drawn from patent US8691760B2, “Peptides, pharmaceutical compositions comprising same and uses thereof” (priority 2009, dated 2014).
